“And” between values parts separate entries of the source, which are not always exact repeats. Equal values may be shown once.
Tests used:
[1] = Effect on passive cutaneous anaphylaxis (PCA); assay type: in vivo, female Sprague-Dawley rats; conditions: intravenously with the antigen
Procedure: (B) Effect on passive cutaneous anaphylaxis (pCA).
Recipient animals for PCA reactions were female Sprague-Dawley rats, 7 weeks old, 180 g-200 g (Nihon Kurea). Each experiment included 5 observations.
Five times crystallized ovalbumin (OVA) (Sigma Lot, 31F-8061) was used as antigen.
Female BDFl mice, 7 weeks old (Nihon Kurea), were given a primary injection (left foot pad, s.c.) of 100 mcg OVA in 0.05 ml saline and after 20 days a booster injection by the same route. Blood was collected 28 days after the primary injection and the sera were stored at -80° C.
The animals were shared with an electric clipper in advance and prepared for Passive Cutaneous Anaphylaxis (PCA) by injecting 0.05 ml of mouse antiserum dilutions (1/16, 1/32) in each side of the dorsal skin.
They were then challenged 48 hours later with an intravenous injection of 1 ml of 0.5% Evans Blue containing 5 mg OVA. Fifty minutes later, they were killed and the lesions (diameter) measured.
A minimal skin response was one with a 5 mm or greater diameter blue spot measured on the dermal side of reflected skin. Drug activity was estimated using the following formula; [formula]
Drugs were suspended in 0.1% methyl cellulose/saline and given intravenously with the antigen.

[2] = Inhibition on stress ulcer; assay type: in vivo, Sprague-Dawley rats; conditions: 32 mg/kg, oral, 22° C. water bath, 7 hours; for Ulcer index Mean ± S. E. / Ulcer index (individual animals): just before immobilization; for Ulcer index Mean ± S. E.: 5 animals; for Ulcer index (individual animals): single animals No. 1-5; for Inh. %: ulcer index inhibition vs control
Procedure: (A) Inhibition on stress ulcer
Sprague-Dawley rats weighing about 200 g were used. Each animal was immobilized in a small cage and put in a water bath allowing to respire. The temperature of the water bath kept at 22° C. The test compound .circle.A and .circle.B were administered orally just before the immobilization. Seven hours later, the animals were sacrificed and their stomachs were removed. The stomach was then fixed with 2% formalin. The area of ulcers was measured for each animal. The mean area (mm^2) in the test animals was compared with that in the control animals.

SMILES | Inhibition (%) ([1]; 1 mg/kg, Antiserum concentration 1/16) | Inhibition (%) ([1]; 1 mg/kg, Antiserum concentration 1/32) | Inhibition (%) ([1]; 10 mg/kg, Antiserum concentration 1/16) | Inhibition (%) ([1]; 10 mg/kg, Antiserum concentration 1/32) | Ulcer index Mean ± S. E. [2] | Ulcer index (individual animals) [2] | Inh. % [2]
O=C(Nc1nn[nH]n1)c1ccc2ccccn2c1=O [Compound .circle.A, N-[5-(1H-Tetrazolyl)]-4H-quinolizin-4-one-3-carboxamide] | 97.2% | 100% | 94.5% | 100% | 6.2 ± 3.0 mm^2 | 18 mm^2 and 5 mm^2 and 3 mm^2 and 4 mm^2 and 1 mm^2 | 67.7%
O=C(Nc1nn[nH]n1)c1cc(-c2ccccc2)c2ccccn2c1=O [Compound .circle.B, N-[5-(1H-Tetrazolyl)]-1-phenyl-4H-quinolizin-4-one-3-carboxamide] | – | – | – | – | 8.4 ± 1.9 mm^2 | 10 mm^2 and 11 mm^2 and 3 mm^2 and 5 mm^2 | 83.7%

— US4650804A, “Quinolizinone compounds and pharmaceutical composition comprising the same, useful as anti-ulcerative and anti-allergic agents” (Fujisawa Pharmaceutical Co., Ltd., priority 1984, dated 1987)
